Reference: patent US4616081A, “Cephalosporin compounds” (Asahi Kasei Kogyo Kabushiki Kaisha, priority 1982, dated 1986)

How the values were obtained:
[1] = tested on: Staph. aureus ATCC 6538P; experiment: MIC against Staph. aureus ATCC 6538P; type: cell-based; conditions: Bacterial count inoculated 10^6 cells/ml
Protocol: (§1) Nextly, antibacterial activity or minimum inhibitory concentration (MIC) was measured and the results are shown in Table 1 with respect to the following representative compounds according to the present invention. [drawing 19]
(§2) With respect to Compound Nos. 14 and 15, antibacterial activity or minimum inhibitory concentration (MIC) was measured and the results are shown in Table 2. [drawing 21]

[2] = tested on: Staph. aureus MS27; experiment: MIC against Staph. aureus MS27; type: cell-based; conditions: Bacterial count inoculated 10^6 cells/ml
Protocol: as §1, §2

[3] = tested on: Strept. pyogenes NY5; experiment: MIC against Strept. pyogenes NY5; type: cell-based; conditions: Bacterial count inoculated 10^6 cells/ml
Protocol: as §1, §2

[4] = tested on: Sarcina lutea ATCC 9341; experiment: MIC against Sarcina lutea ATCC 9341; type: cell-based; conditions: Bacterial count inoculated 10^6 cells/ml
Protocol: as §1, §2

[5] = tested on: Bac. subtilis ATCC 6633; experiment: MIC against Bac. subtilis ATCC 6633; type: cell-based; conditions: Bacterial count inoculated 10^6 cells/ml
Protocol: as §2

[6] = tested on: E. coli NIHJ-JC2; experiment: MIC against E. coli NIHJ-JC2; type: cell-based; conditions: Bacterial count inoculated 10^6 cells/ml
Protocol: as §1, §2

[7] = tested on: E. coli W3630; experiment: MIC against E. coli W3630; type: cell-based; conditions: Bacterial count inoculated 10^6 cells/ml
Protocol: as §1, §2

[8] = tested on: E. coli W3630 PS3; experiment: MIC against E. coli W3630 PS3; type: cell-based; conditions: Bacterial count inoculated 10^6 cells/ml
Protocol: as §1, §2

[9] = tested on: Citrobact. freundii GN346; experiment: MIC against Citrobact. freundii GN346; type: cell-based; conditions: Bacterial count inoculated 10^6 cells/ml
Protocol: as §1, §2

[10] = tested on: Klebs. pneumoniae ATCC 10031; experiment: MIC against Klebs. pneumoniae ATCC 10031; type: cell-based; conditions: Bacterial count inoculated 10^6 cells/ml
Protocol: as §1, §2

[11] = tested on: Salm. enteritidis Gaertner; experiment: MIC against Salm. enteritidis Gaertner; type: cell-based; conditions: Bacterial count inoculated 10^6 cells/ml
Protocol: as §1, §2

[12] = tested on: Shigella sonnei E33; experiment: MIC against Shigella sonnei E33; type: cell-based; conditions: Bacterial count inoculated 10^6 cells/ml
Protocol: as §1, §2

[13] = tested on: Proteus morganii 0239; experiment: MIC against Proteus morganii 0239; type: cell-based; conditions: Bacterial count inoculated 10^6 cells/ml
Protocol: as §1, §2

[14] = tested on: Proteus rettgeri ACR; experiment: MIC against Proteus rettgeri ACR; type: cell-based; conditions: Bacterial count inoculated 10^6 cells/ml
Protocol: as §1, §2

[15] = tested on: Enterobact. aerogenes 0655; experiment: MIC against Enterobact. aerogenes 0655; type: cell-based; conditions: Bacterial count inoculated 10^6 cells/ml
Protocol: as §1, §2

[16] = tested on: Enterobact. cloacae GN336; experiment: MIC against Enterobact. cloacae GN336; type: cell-based; conditions: Bacterial count inoculated 10^6 cells/ml
Protocol: as §1, §2

[17] = tested on: Serratia marcescens; experiment: MIC against Serratia marcescens; type: cell-based; conditions: Bacterial count inoculated 10^6 cells/ml
Protocol: as §1, §2

[18] = tested on: Ps. aeruginosa 0812 M2; experiment: MIC against Ps. aeruginosa 0812 M2; type: cell-based; conditions: Bacterial count inoculated 10^6 cells/ml
Protocol: as §1, §2

[19] = acute toxicity test using mice, intraperitoneal; conditions: mouse, in vivo, ip
Excerpt: In addition to excellent antibacterial activity, the compounds of the present invention are low in toxicity. For example, in acute toxicity test using mice, the following results were obtained with Compound Nos. 2, 3, 7, 14, 15 and 23 which were intraperitoneally administered.

[20] = maximum blood concentration after oral administration in Wister rats (HPLC and Bioassay); type: in vivo; conditions: Wister rat, fasted, 30 mg/kg, solution of pH 7 in phosphate buffer
Protocol: Further in the compounds according to the present invention, intestinal absorption is improved by the introduction of amino acids at the 3-position thereof. For example, comparison of the maximum blood concentration of the Compound Nos. 2, 3, 7, 8, 14, 15 and 23 with that of Comparative Compound (b) establishes and affirms the effects, as is shown below. In the above test, the method for measurement of blood concentration was as follows. Rate: Wister rat weighing 170 to 220 g Dose: 30 mg/kg Wister rats were fasted from the previous night but freely accessible to water. Each of drugs was administered as a solution of pH 7 in a phosphate buffer, when orally administered. The blood concentration was measured in accordance with the High Performance Liquid Chromatography (HPLC) method and the Bioassay method by using E. coli as bacteria for test.

SMILES	Minimum Inhibitory Concentration (MIC) [1]	Minimum Inhibitory Concentration (MIC) [2]	Minimum Inhibitory Concentration (MIC) [3]	Minimum Inhibitory Concentration (MIC) [4]	Minimum Inhibitory Concentration (MIC) [5]	Minimum Inhibitory Concentration (MIC) [6]	Minimum Inhibitory Concentration (MIC) [7]	Minimum Inhibitory Concentration (MIC) [8]	Minimum Inhibitory Concentration (MIC) [9]	Minimum Inhibitory Concentration (MIC) [10]	Minimum Inhibitory Concentration (MIC) [11]	Minimum Inhibitory Concentration (MIC) [12]	Minimum Inhibitory Concentration (MIC) [13]	Minimum Inhibitory Concentration (MIC) [14]	Minimum Inhibitory Concentration (MIC) [15]	Minimum Inhibitory Concentration (MIC) [16]	Minimum Inhibitory Concentration (MIC) [17]	Minimum Inhibitory Concentration (MIC) [18]	LD50 [19] [mg/kg]	Cmax [20] [ng/mL]
CO/N=C(\C(=O)N[C@@H]1C(=O)N2C(C(=O)O)=C(C[n+]3ccc(CC(N)C(=O)O)cc3)CS[C@H]12)c1csc(N)n1 (stereo partly drawn) [Compound No. 14, 7β-[(Z)-2-(2-amino-4-thiazolyl)-2-(methoxyimino)acetamido]-3-[4-(2-amino-2-carboxy)ethyl-1-pyridiummethyl]-3-cephem-4-carboxylic acid]	6.3	3.1	0.1	0.8	≤ 0.1	0.1	≤ 0.1	≤ 0.1	12.5	≤ 0.1	≤ 0.1	≤ 0.1	0.2	0.2	0.2	0.2	0.1	3.1	9000 to 10000	9000
Cc1nnc(SCC2=C(C(=O)O)N3C(=O)C(NC(=O)Cn4cnnn4)C3SC2)s1 (stereo not shown) [Comparative Compound (a), reference compound]	0.4	1.6	0.2	0.8	0.2	1.6	3.1	3.1	> 100	3.1	3.1	1.6	> 100	> 100	> 100	> 100	> 100	> 100		
CO/N=C(\C(=O)N[C@@H]1C(=O)N2C(C(=O)O)=C(C[n+]3cccc(CC(N)C(=O)O)c3)CS[C@H]12)c1csc(N)n1 (stereo partly shown) [Compound No. 15]	3.1	6.3	≤ 0.1	≤ 0.1	1.6	0.2	0.2	0.1	12.5	0.1	≤ 0.1	≤ 0.1	0.2	0.2	0.2	0.2	0.4	6.3	10000 to 12000	12000
